Laboratory results as given in patent US12522595B2, “Bicyclic ether O-glycoprotein-2-acetamido-2-deoxy-3-D-glucopyranosidase inhibitors” (BIOGEN MA INC., priority 2019, dated 2026).

These compounds were tested against T1, Recombinant full length human OGA enzyme (Homo sapiens, UniProt O60502) (assay: OGA enzyme inhibition biochemical assay). Conditions: 1 nM OGA, 100 μM 4-MUGlcNAc (Km), pH 6.4, 90 minutes at room temperature, 10-point dose-response from 20 μM.
T1 construct: Recombinant full length human OGA enzyme was purchased from Origene; purchased Origene
T1 sequence (O60502 1-916): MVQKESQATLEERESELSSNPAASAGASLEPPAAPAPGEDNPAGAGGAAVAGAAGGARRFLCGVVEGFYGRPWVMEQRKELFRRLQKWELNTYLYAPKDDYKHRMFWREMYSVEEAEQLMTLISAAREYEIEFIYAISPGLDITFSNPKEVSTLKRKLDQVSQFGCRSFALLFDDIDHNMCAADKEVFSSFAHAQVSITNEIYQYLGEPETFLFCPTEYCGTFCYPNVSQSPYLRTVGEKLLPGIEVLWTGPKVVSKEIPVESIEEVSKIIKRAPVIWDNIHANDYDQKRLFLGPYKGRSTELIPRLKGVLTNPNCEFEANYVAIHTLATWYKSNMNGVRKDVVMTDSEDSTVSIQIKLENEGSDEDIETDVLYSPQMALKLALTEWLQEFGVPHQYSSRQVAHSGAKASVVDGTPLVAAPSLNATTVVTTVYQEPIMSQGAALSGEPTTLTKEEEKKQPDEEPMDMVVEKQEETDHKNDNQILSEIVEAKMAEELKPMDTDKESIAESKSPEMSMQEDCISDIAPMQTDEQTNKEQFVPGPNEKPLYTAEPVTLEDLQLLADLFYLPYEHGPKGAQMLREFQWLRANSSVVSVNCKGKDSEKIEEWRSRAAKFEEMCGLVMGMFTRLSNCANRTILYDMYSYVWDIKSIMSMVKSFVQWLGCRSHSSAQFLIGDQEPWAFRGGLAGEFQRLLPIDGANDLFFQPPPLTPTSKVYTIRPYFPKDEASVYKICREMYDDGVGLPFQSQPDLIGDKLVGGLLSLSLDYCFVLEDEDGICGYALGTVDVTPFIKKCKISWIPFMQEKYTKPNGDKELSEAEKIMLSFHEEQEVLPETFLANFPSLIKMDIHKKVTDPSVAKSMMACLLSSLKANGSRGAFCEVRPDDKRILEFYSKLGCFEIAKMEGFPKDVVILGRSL
Method in brief: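 1 nM OGA with 100 μM 4-MUGlcNAc (Km) in McIlvaine buffer pH 6.4, 0.01% BSA, 90 min at room temperature; quenched with 3M glycine pH 10, fluorescence Ex 355/Em 460 nm. 10-point, 4-fold dilutions from 20 μM; 4-parameter variable-slope fit.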

Row | IC50 [nM] | SMILES
1 | < 1 | CC(=O)Nc1nc(F)c(CN2C[C@H](Oc3ccc4nccn4n3)C[C@@H]2C)s1 [Example 108, N-(4-fluoro-5-(((2S,4R)-4-(imidazo[1,2-b]pyridazin-6-yloxy)-2-methylpyrrolidin-1-yl)methyl)thiazol-2-yl)acetamide]
2 | < 1 | CC(=O)Nc1ncc(CN2C[C@H](Oc3ccn4nccc4n3)C[C@@H]2C)s1 [Example 61, N-(5-(((2S,4R)-2-methyl-4-(pyrazolo[1,5-a]pyrimidin-5-yloxy)pyrrolidin-1-yl)methyl)thiazol-2-yl)acetamide]
3 | < 1 | CC(=O)Nc1nc(F)c(CN2C[C@H](Oc3nccc4ncnn34)C[C@@H]2C)s1 [Example 145, N-(5-(((2S,4R)-4-([1,2,4]triazolo[1,5-c]pyrimidin-5-yloxy)-2-methylpyrrolidin-1-yl)methyl)-4-fluorothiazol-2-yl)acetamide]
4 | < 1 | CC(=O)Nc1ncc(CN2C[C@H](Oc3nccc4oc(C)cc34)C[C@@H]2C)s1 [Example 16, N-(5-(((2S,4R)-2-methyl-4-((2-methylfuro[3,2-c]pyridin-4-yl)oxy)pyrrolidin-1-yl)methyl)thiazol-2-yl)acetamide]
5 | < 1 | COc1ccc2ccc(O[C@@H]3C[C@H](C)N(Cc4sc(NC(C)=O)nc4F)C3)nc2n1 [Example 167, N-(4-fluoro-5-(((2S,4R)-4-((7-methoxy-1,8-naphthyridin-2-yl)oxy)-2-methylpyrrolidin-1-yl)methyl)thiazol-2-yl)acetamide]
6 | < 1 | COc1cc2ccnc(Cl)c2cc1O[C@@H]1C[C@H](C)N(Cc2sc(NC(C)=O)nc2F)C1 [Example 132, N-(5-(((2S,4R)-4-((1-chloro-6-methoxyisoquinolin-7-yl)oxy)-2-methylpyrrolidin-1-yl)methyl)-4-fluorothiazol-2-yl)acetamide]
7 | < 1 | CC(=O)Nc1ncc(CN2C[C@H](Oc3ncnc4occc34)C[C@@H]2C)s1 [Example 73, N-(5-(((2S,4R)-4-(furo[2,3-d]pyrimidin-4-yloxy)-2-methylpyrrolidin-1-yl)methyl)thiazol-2-yl)acetamide]
8 | < 1 | COc1ccc2ccc(O[C@@H]3C[C@H](C)N(Cc4cnc(NC(C)=O)s4)C3)nc2n1 [Example 166, N-(5-(((2S,4R)-4-((7-methoxy-1,8-naphthyridin-2-yl)oxy)-2-methylpyrrolidin-1-yl)methyl)thiazol-2-yl)acetamide]
9 | < 1 | CC(=O)Nc1nc(F)c(CN2C[C@H](Oc3cccc4nnnn34)C[C@@H]2C)s1 [Example 147, N-(4-fluoro-5-(((2S,4R)-2-methyl-4-(tetrazolo[1,5-a]pyridin-5-yloxy)pyrrolidin-1-yl)methyl)thiazol-2-yl)acetamide]
10 | < 1 | CC(=O)Nc1ncc(CN2C[C@H](Oc3cccc4nccn34)C[C@@H]2C)s1 [Example 63, N-(5-(((2S,4R)-4-(imidazo[1,2-a]pyridin-5-yloxy)-2-methylpyrrolidin-1-yl)methyl)thiazol-2-yl)acetamide]
11 | < 1 | CC(=O)Nc1nc(F)c(CN2C[C@H](Oc3ccn4nc(C)cc4n3)C[C@@H]2C)s1 [Example 112, N-(4-fluoro-5-(((2S,4R)-2-methyl-4-((2-methylpyrazolo[1,5-a]pyrimidin-5-yl)oxy)pyrrolidin-1-yl)methyl)thiazol-2-yl)acetamide]
12 | 5 | CC(=O)Nc1ncc(CN2C[C@H](Oc3nc4cccnc4n3C)C[C@@H]2C)s1 [Example 91, N-(5-(((2S,4R)-2-methyl-4-((3-methyl-3H-imidazo[4,5-b]pyridin-2-yl)oxy)pyrrolidin-1-yl)methyl)thiazol-2-yl)acetamide]
13 | < 1 | CC(=O)Nc1ncc(CN2C[C@H](Oc3ccc4cc(C(N)=O)ccc4n3)C[C@@H]2C)s1 [Example 2, 2-(((3R,5S)-1-((2-acetamidothiazol-5-yl)methyl)-5-methylpyrrolidin-3-yl)oxy)quinoline-6-carboxamide]
14 | < 1 | CC(=O)Nc1ncc(CN2C[C@H](Oc3ccn4nccc4c3)C[C@@H]2C)s1 [Example 59, N-(5-(((2S,4R)-2-methyl-4-(pyrazolo[1,5-a]pyridin-5-yloxy)pyrrolidin-1-yl)methyl)thiazol-2-yl)acetamide]
15 | < 1 | COc1ccc2ccc(O[C@@H]3C[C@H](C)N(Cc4sc(NC(C)=O)nc4F)C3)nc2c1 [Example 80, N-(4-fluoro-5-(((2S,4R)-4-((7-methoxyquinolin-2-yl)oxy)-2-methylpyrrolidin-1-yl)methyl)thiazol-2-yl)acetamide]
16 | 3.1 | CC(=O)Nc1nc(F)c(CN2C[C@H](Oc3noc4cc(F)ccc34)C[C@@H]2C)s1 [Example 126, N-(4-fluoro-5-(((2S,4R)-4-((6-fluorobenzo[d]isoxazol-3-yl)oxy)-2-methylpyrrolidin-1-yl)methyl)thiazol-2-yl)acetamide]
17 | 2.4 | CC(=O)Nc1ncc(CN2C[C@H](Oc3cccc4cnn(C)c34)C[C@@H]2C)s1 [Example 160, N-(5-(((2S,4R)-2-methyl-4-((1-methyl-1H-indazol-7-yl)oxy)pyrrolidin-1-yl)methyl)thiazol-2-yl)acetamide]
18 | 1.1 | CC(=O)Nc1nc(F)c(CN2C[C@H](Oc3ncnc4ncccc34)C[C@@H]2C)s1 [Example 119, N-(4-fluoro-5-(((2S,4R)-2-methyl-4-(pyrido[2,3-d]pyrimidin-4-yloxy)pyrrolidin-1-yl)methyl)thiazol-2-yl)acetamide]
19 | < 1 | CC(=O)Nc1ncc(CN2C[C@H](Oc3cnc4nc(C)oc4c3)C[C@@H]2C)s1 [Example 168, N-(5-(((2S,4R)-2-Methyl-4-((2-methyloxazolo[4,5-b]pyridin-6-yl)oxy)pyrrolidin-1-yl)methyl)thiazol-2-yl)acetamide]
20 | < 1 | CC(=O)Nc1nc(F)c(CN2C[C@H](Oc3ccc4occc4n3)C[C@@H]2C)s1 [Example 66, N-(4-fluoro-5-(((2S,4R)-4-(furo[3,2-b]pyridin-5-yloxy)-2-methylpyrrolidin-1-yl)methyl)thiazol-2-yl)acetamide]
21 | 7.9 | CC(=O)Nc1ncc(CN2C[C@H](Oc3nccc4ccc(C)cc34)C[C@@H]2C)s1 [Example 30, N-(5-(((2S,4R)-2-methyl-4-((7-methylisoquinolin-1-yl)oxy)pyrrolidin-1-yl)methyl)thiazol-2-yl)acetamide]
22 | 22 | CC(=O)Nc1ncc(CN2C[C@H](Oc3ccnc4nc(C(F)(F)F)nn34)C[C@@H]2C)s1 [Example 34, N-(5-(((2S,4R)-2-methyl-4-((2-(trifluoromethyl)-[1,2,4]triazolo[1,5-a]pyrimidin-7-yl)oxy)pyrrolidin-1-yl)methyl)thiazol-2-yl)acetamide]
23 | < 1 | CC(=O)Nc1nc(F)c(CN2C[C@H](Oc3ncc4cnn(C)c4n3)C[C@@H]2C)s1 [Example 142, N-(4-fluoro-5-(((2S,4R)-2-methyl-4-((1-methyl-1H-pyrazolo[3,4-d]pyrimidin-6-yl)oxy)pyrrolidin-1-yl)methyl)thiazol-2-yl)acetamide]
24 | < 1 | CC(=O)Nc1nc(F)c(CN2C[C@H](Oc3ccc4nnn(C)c4n3)C[C@@H]2C)s1 [Example 150, N-(4-fluoro-5-(((2S,4R)-2-methyl-4-((3-methyl-3H-[1,2,3]triazolo[4,5-b]pyridin-5-yl)oxy)pyrrolidin-1-yl)methyl)thiazol-2-yl)acetamide]
